According to patent US8846710B2, “Method of preferentially inducing the biosynthesis of interferon” (3M Innovative Properties Company, priority 2005, dated 2014):

Key:
[1] = system: tumor necrosis factor (α) (TNF-α); assay: Cytokine induction in human cells: TNF-α secreted by PBMC into culture media (ORIGEN M-Series immunoassay); type: cell-based; parameters: key to Maximal Response (pg/mL) TNF / Maximal Response TNF: If any negative values result from background subtraction, the reading is reported as “*”, and is noted as not reliably detectable; conditions: for Minimum Effective Concentration TNF / Maximal Response TNF / minimal effective concentration: human PBMC; for Minimum Effective Concentration TNF: median where tested in more than one experiment; for Maximal Response TNF / Maximal Response (pg/mL) TNF: median; for minimal effective concentration: lowest tested concentration inducing TNF-α over usually 40 pg/mL, median where more than one experiment, read-out: Minimum Effective Concentration (μM) TNF; for Maximal Response (pg/mL) TNF: maximal response in dose response curve
In short: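 Human donor PBMC (final 2×10^6 cells/mL) were incubated 18 to 24 hours at 37° C with compound, usually 30-0.014 μM in 3-fold steps, ≤1% DMSO. Supernatant TNF-α was measured by ORIGEN immunoassay, background-subtracted and reference-adjusted; minimum effective concentration was the lowest concentration exceeding a fixed cytokine threshold.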

interferon (α) (IFN-α) = assay: Cytokine induction in human cells: IFN-α secreted by PBMC into culture media (ELISA); type: cell-based; conditions: for Maximal Response IFN / Minimum Effective Concentration IFN / minimal effective concentration: human PBMC; for Maximal Response IFN / Minimum Effective Concentration IFN: median where tested in more than one experiment; for minimal effective concentration: lowest tested concentration inducing IFN-α over usually 20 pg/mL, median where more than one experiment, read-out: Minimum Effective Concentration (μM) IFN; for Maximal Response (pg/mL) IFN: maximal response in dose response curve, median
In short: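 Human donor PBMC, 2×10^6 cells/mL final in RPMI complete, treated 18–24 h at 37 °C, 5% CO2 with 3-fold dilutions (usually 30-0.014 μM), DMSO ≤1%. Supernatant IFN-α by multi-subtype sandwich ELISA, background-subtracted and reference-adjusted; minimum effective concentration = lowest concentration exceeding usually 20 pg/mL.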

[2] = Table 11, * = TNF below experimental background of 40 pg/mL
[3] = Table 10, * = below experimental background level
[4] = Table 7, background-subtracted, reference-adjusted
[5] = Table 8, background-subtracted, reference-adjusted

| SMILES | Minimum Effective Concentration TNF ([1]; Table 11) | Maximal Response TNF [1, 2] | Maximal Response IFN (interferon (α) (IFN-α); Table 11) | Minimum Effective Concentration IFN (interferon (α) (IFN-α); Table 11) | also measured |
| --- | --- | --- | --- | --- | --- |
| CCOCc1nc2c(N)nc3ccccc3c2n1CCNS(C)(=O)=O [Analog 71] | 3.33 µM | 4918 pg/mL | 1465 pg/mL | 0.12 µM |  |
| CCOCc1nc2c(N)nc3cc(-c4ccccc4)ccc3c2n1CCCN1CCCC1=O [Analog 22] |  |  |  |  | minimal effective concentration ([1]; Table 10): 1.11 µM; Maximal Response (pg/mL) TNF [1, 3]: 62 pg/mL; minimal effective concentration (interferon (α) (IFN-α); Table 10): 0.37 µM; Maximal Response (pg/mL) IFN (interferon (α) (IFN-α); [3]): 1665 pg/mL |
| CCCCNC(=O)NCCCn1c(CCOC)nc2c(N)nc3ccccc3c21 [Analog 98] | 0.04 µM | 6169 pg/mL | 5915 pg/mL | 0.014 µM |  |
| COCc1nc2c(N)nc3ccccc3c2n1CC(C)(C)CNC(=O)c1ccccc1 [Analog 94] | 3.33 µM | 9721 pg/mL | 2518 pg/mL | 1.11 µM |  |
| COCCc1nc2c(N)nc3ccccc3c2n1CCOCCN(C)S(C)(=O)=O [Analog 80] | 0.37 µM | 2191 pg/mL | 1630 pg/mL | 0.014 µM |  |
| CC(C)(Cn1c(CO)nc2c(N)nc3ccccc3c21)CS(C)(=O)=O [Example 364, {4-Amino-1-[2,2-dimethyl-3-(methylsulfonyl)propyl]-1H-imidazo[4,5-c]quinolin-2-yl}methanol] |  | 164 pg/mL | 5343 pg/mL |  |  |
| COCCc1nc2c(N)nc3ccccc3c2n1CC(C)(C)CNC(=O)c1ccccc1 [Analog 96] | 0.014 µM | 1812 pg/mL | 2133 pg/mL | 0.014 µM |  |
| CCCc1nc2c(N)nc3cc(-c4cccnc4)ccc3c2n1CC1CCN(C(=O)C(C)C)CC1 [Analog 20] |  |  |  |  | minimal effective concentration ([1]; Table 10): 0.37 µM; Maximal Response (pg/mL) TNF [1, 3]: 1054 pg/mL; minimal effective concentration (interferon (α) (IFN-α); Table 10): 0.12 µM; Maximal Response (pg/mL) IFN (interferon (α) (IFN-α); [3]): 1157 pg/mL |
| CCCc1nc2c(N)nc3ccccc3c2n1CC(C)(C)CNS(C)(=O)=O [Analog 65] | 10 µM | 1929 pg/mL | 1711 pg/mL | 0.12 µM |  |
| CCOCc1nc2c(N)nc3ccccc3c2n1CC(C)(C)NS(C)(=O)=O [Analog 4, N-[2-(4-Amino-2-ethoxymethyl-1H-imidazo[4,5-c]quinolin-1-yl)-1,1-dimethylethyl]methanesulfonamide] |  | 10665 pg/mL | 1138 pg/mL |  | Maximal Response (pg/mL) TNF [1, 4]: 10125 pg/mL; Maximal Response (pg/mL) IFN (interferon (α) (IFN-α); [4]): 889 pg/mL |
| Cc1nc2c(N)nc3ccccc3c2n1CCCNS(C)(=O)=O [Aanalog 58] | 30 µM | * | 2778 pg/mL | 1.11 µM |  |
| CCCc1nc2c(N)nc3cc(-c4cncc(CO)c4)ccc3c2n1CC(C)(C)O [Analog 17] |  |  |  |  | minimal effective concentration ([1]; Table 10): 0.12 µM; Maximal Response (pg/mL) TNF [1, 3]: 16482 pg/mL; minimal effective concentration (interferon (α) (IFN-α); Table 10): 0.014 µM; Maximal Response (pg/mL) IFN (interferon (α) (IFN-α); [3]): 1079 pg/mL |
| CS(=O)(=O)NCCCCCCCCn1c(CCO)nc2c(N)nc3ccccc3c21 [Example 119] | 3.33 µM | 693 pg/mL | 8361 pg/mL | 0.04 µM |  |
| COCCc1nc2c(N)nc3ccccc3c2n1CCCNC(=O)c1cc2ccccc2cn1 [Analog 110] | 1.11 µM | 6169 pg/mL | 647 pg/mL | 0.12 µM |  |
| CC(C)(Cn1c(CO)nc2c(N)nc3ccccc3c21)NS(C)(=O)=O [Example 7, N-[2-(4-Amino-2-hydroxymethyl-1H-imidazo[4,5-c]quinolin-1-yl)-1,1-dimethylethyl]methanesulfonamide] |  | 154 pg/mL | 1670 pg/mL |  | Maximal Response (pg/mL) TNF [1, 4]: 121 pg/mL; Maximal Response (pg/mL) IFN (interferon (α) (IFN-α); [4]): 2250 pg/mL |
| NCCCn1c(CCO)nc2c(N)nc3ccccc3c21 [Example 120] | >30 µM | * | 5636 pg/mL | 3.33 µM |  |
| CCOCc1nc2c(N)nc3ccccc3c2n1CCNC(=O)NC(C)C [Analog 125] | 10 µM | 7512 pg/mL | 2045 pg/mL | 0.37 µM |  |

| SMILES | Minimum Effective Concentration TNF ([1]; Table 11) | Maximal Response TNF [1, 2] | Maximal Response IFN (interferon (α) (IFN-α); Table 11) | Minimum Effective Concentration IFN (interferon (α) (IFN-α); Table 11) | also measured |
| --- | --- | --- | --- | --- | --- |
| CCOCc1nc2c(N)nc3cc(-c4cncc(CO)c4)ccc3c2n1CC(C)C [Analog 28] |  |  |  |  | minimal effective concentration ([1]; Table 10): 0.37 µM; Maximal Response (pg/mL) TNF [1, 3]: 3885 pg/mL; minimal effective concentration (interferon (α) (IFN-α); Table 10): 0.04 µM; Maximal Response (pg/mL) IFN (interferon (α) (IFN-α); [3]): 1263 pg/mL |
| CCOCc1nc2c(N)nc3ccccc3c2n1CCCCNC(=O)N1CCOCC1 [Analog 56] | 1.11 µM | 1580 pg/mL | 3433 pg/mL | 0.12 µM |  |
| COCCc1nc2c(N)nc3ccccc3c2n1CCCCNC(=O)N1CCOCC1 [Analog 57] | 0.04 µM | 3494 pg/mL | 8889 pg/mL | 0.014 µM |  |
| CC(C)Cn1c(CCO)nc2c(N)nc3cc(-c4cccnc4)ccc3c21 [Example 158] |  |  |  |  | Maximal Response (pg/mL) TNF [1, 3]: 42 pg/mL; minimal effective concentration (interferon (α) (IFN-α); Table 10): 0.37 µM |
| COCCc1nc2c(N)nc3cc(-c4cccnc4)ccc3c2n1CC(C)C [Analog 25] |  |  |  |  | minimal effective concentration ([1]; Table 10): 0.04 µM; Maximal Response (pg/mL) TNF [1, 3]: 3151 pg/mL; minimal effective concentration (interferon (α) (IFN-α); Table 10): 0.014 µM; Maximal Response (pg/mL) IFN (interferon (α) (IFN-α); [3]): 1199 pg/mL |
| COCCc1nc2c(N)nc3ccccc3c2n1CCCCN [Analog 114] | 0.37 µM | 724 pg/mL | 127231 pg/mL | 0.04 µM |  |
| Cc1nc2c(N)nc3ccccc3c2n1CCCNC(=O)c1ccccc1 [Analog 101] | 3.33 µM | 156 pg/mL | 571 pg/mL | 1.11 µM |  |
| CCCc1nc2c(N)nc3ccccc3c2n1CCCCNC(=O)N1CCOCC1 [Analog 55] | 1.11 µM | 1298 pg/mL | 11255 pg/mL | 0.12 µM |  |
| CCOCc1nc2c(N)nc3cc(-c4cccnc4)ccc3c2n1CCCCNC(=O)C(C)C [Analog 37] |  |  |  |  | minimal effective concentration ([1]; Table 10): 1.11 µM; Maximal Response (pg/mL) TNF [1, 3]: 728 pg/mL; minimal effective concentration (interferon (α) (IFN-α); Table 10): 0.12 µM; Maximal Response (pg/mL) IFN (interferon (α) (IFN-α); [3]): 1194 pg/mL |
| Cc1nc2c(N)nc3ccccc3c2n1CC(C)(C)NS(C)(=O)=O [Analog 1, N-[2-(4-Amino-2-methyl-1H-imidazo[4,5-c]quinolin-1-yl)-1,1-dimethylethyl]methanesulfonamide] |  |  |  |  | Maximal Response (pg/mL) TNF [1, 4]: 1518 pg/mL; Maximal Response (pg/mL) IFN (interferon (α) (IFN-α); [4]): 1846 pg/mL |
| CCNC(=O)NCCn1c(CCO)nc2c(N)nc3ccccc3c21 [Example 137] | 30 µM | 73 pg/mL | 801 pg/mL | 30 µM |  |
| CCc1nc2c(N)nc3cc(-c4cccnc4)ccc3c2n1CC1CCN(C(=O)C(C)C)CC1 [Analog 19] |  |  |  |  | minimal effective concentration ([1]; Table 10): 1.11 µM; Maximal Response (pg/mL) TNF [1, 3]: 619 pg/mL; minimal effective concentration (interferon (α) (IFN-α); Table 10): 0.12 µM; Maximal Response (pg/mL) IFN (interferon (α) (IFN-α); [3]): 1686 pg/mL |
| COCCc1nc2c(N)nc3cc(-c4cncc(CO)c4)ccc3c2n1CC(C)(C)O [Analog 16] |  |  |  |  | minimal effective concentration ([1]; Table 10): 0.04 µM; Maximal Response (pg/mL) TNF [1, 3]: 16296 pg/mL; minimal effective concentration (interferon (α) (IFN-α); Table 10): 0.014 µM; Maximal Response (pg/mL) IFN (interferon (α) (IFN-α); [3]): 5868 pg/mL |
| COCCc1nc2c(N)nc3ccccc3c2n1CCCNC(=O)c1ccccc1 [Analog 102] | 1.11 µM | 3080 pg/mL | 1504 pg/mL | 0.014 µM |  |
| CCOCc1nc2c(N)nc3cccnc3c2n1CC(C)(C)O [Analog 6, 1-(4-amino-2-ethoxymethyl-1H-imidazo[4,5-c][1,5]naphthyridin-1-yl)-2-methylpropan-2-ol] |  |  |  |  | Maximal Response (pg/mL) TNF [1, 5]: 4921 pg/mL; Maximal Response TNF ([1]; Table 12, * = below the experimental background of 40 pg/mL): 7275 pg/mL; Maximal Response (pg/mL) IFN (interferon (α) (IFN-α); [5]): 658 pg/mL; Maximal Response IFN (interferon (α) (IFN-α); Table 12): 1674 pg/mL |
| Nc1nc2ccccc2c2c1nc(CCO)n2CCCNC(=O)N1CCOCC1 [Example 128] | >30 µM | * | 75 pg/mL | 30 µM |  |
